PubChem BioAssay (NCI)
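The compound was tested at five concentrations on cells cultured in 96-well plates, with a 48-hour exposure period. Abbreviation: GI50, concentration required for 50% inhibition of growth. TGI: concentration producing complete growth inhibition.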

Key:
Assay in all cases: NCI anticancer screen, dose series, 48 h
[1] = test system: BT-549 breast
[2] = test system: A549 NSCLC
[3] = test system: TK-10 renal
[4] = test system: COLO 205 colon
[5] = test system: NCI-H23 lung
[6] = test system: ACHN renal
[7] = test system: NCI-H226 lung
[8] = test system: K-562 leukemia
[9] = test system: SNB-19 CNS
[10] = test system: SF-295 CNS
[11] = test system: CCRF-CEM leukemia
[12] = test system: RXF 393 renal
[13] = test system: OVCAR-8 ovarian
[14] = test system: M14 melanoma
[15] = test system: MALME-3M melanoma
[16] = test system: A498 renal
[17] = test system: NCI-H460 lung
[18] = test system: SF-539 CNS
[19] = test system: SNB-75 CNS
[20] = test system: DU-145 prostate
[21] = test system: CAKI-1 renal
[22] = test system: NCI-H522 lung
[23] = test system: HOP-62 NSCLC
[24] = test system: UACC-257 melanoma
[25] = test system: HCT-15 colon
[26] = test system: PC-3 prostate
[27] = test system: U251 CNS
[28] = test system: HCT-116 colon
[29] = test system: HOP-92 NSCLC
[30] = test system: MDA-MB-231 breast
[31] = test system: SW-620 colon
[32] = test system: SK-MEL-28 melanoma
[33] = test system: 786-0 renal
[34] = test system: T-47D breast
[35] = test system: EKVX NSCLC
[36] = test system: MCF7 breast
[37] = test system: HS 578T breast
[38] = test system: NCI/ADR-RES ovarian
[39] = test system: LOX IMVI melanoma
[40] = test system: KM12 colon
[41] = test system: SN12C renal
[42] = test system: MDA-MB-435
[43] = test system: OVCAR-3 ovarian
[44] = test system: OVCAR-5 ovarian
[45] = test system: SK-OV-3 ovarian
[46] = test system: HL-60(TB) leukemia
[47] = test system: SF-268 CNS
[48] = test system: UACC-62 melanoma
[49] = test system: RPMI-8226 leukemia
[50] = test system: UO-31 renal
[51] = test system: HT29 colon
[52] = test system: MOLT-4 leukemia
[53] = test system: OVCAR-4 ovarian
[54] = test system: IGROV1 ovarian
[55] = test system: SK-MEL-2 melanoma

SMILES: O=C1CCC(N2C(=O)c3ccccc3C2=O)C(=O)N1CO (stereo not given)
- GI50 [1]: 52.6 µM
- TGI [1]: > 100 µM
- GI50 [2]: > 100 µM
- TGI [2]: > 100 µM
- GI50 [3]: > 100 µM
- TGI [3]: > 100 µM
- GI50 [4]: > 100 µM
- TGI [4]: > 100 µM
- GI50 [5]: 39.6 µM
- TGI [5]: 94.6 µM
- GI50 [6]: 95.2 µM
- TGI [6]: > 100 µM
- GI50 [7]: > 100 µM
- TGI [7]: > 100 µM
- GI50 [8]: > 100 µM
- TGI [8]: > 100 µM
- GI50 [9]: > 100 µM
- TGI [9]: > 100 µM
- GI50 [10]: > 100 µM
- TGI [10]: > 100 µM
- GI50 [11]: 30.5 µM
- TGI [11]: > 100 µM
- GI50 [12]: 43 µM
- TGI [12]: > 100 µM
- GI50 [13]: > 100 µM
- TGI [13]: > 100 µM
- GI50 [14]: 54.7 µM
- TGI [14]: > 100 µM
- GI50 [15]: > 100 µM
- TGI [15]: > 100 µM
- GI50 [16]: > 100 µM
- TGI [16]: > 100 µM
- GI50 [17]: > 100 µM
- TGI [17]: > 100 µM
- GI50 [18]: 30.8 µM
- TGI [18]: 93.6 µM
- GI50 [19]: > 100 µM
- TGI [19]: > 100 µM
- GI50 [20]: 25 µM
- TGI [20]: 79.6 µM
- GI50 [21]: 94.7 µM
- TGI [21]: > 100 µM
- GI50 [22]: > 100 µM
- TGI [22]: > 100 µM
- GI50 [23]: > 100 µM
- TGI [23]: > 100 µM
- GI50 [24]: 78.6 µM
- TGI [24]: > 100 µM
- GI50 [25]: 52.2 µM
- TGI [25]: > 100 µM
- GI50 [26]: 47.2 µM
- TGI [26]: > 100 µM
- GI50 [27]: 90.8 µM
- TGI [27]: > 100 µM
- GI50 [28]: 21.2 µM
- TGI [28]: 45.4 µM
- GI50 [29]: 25 µM
- TGI [29]: > 100 µM
- GI50 [30]: > 100 µM
- TGI [30]: > 100 µM
- GI50 [31]: 32.4 µM
- TGI [31]: > 100 µM
- GI50 [32]: > 100 µM
- TGI [32]: > 100 µM
- GI50 [33]: > 100 µM
- TGI [33]: > 100 µM
- GI50 [34]: 78 µM
- TGI [34]: > 100 µM
- GI50 [35]: > 100 µM
- TGI [35]: > 100 µM
- GI50 [36]: 26.6 µM
- TGI [36]: > 100 µM
- GI50 [37]: > 100 µM
- TGI [37]: > 100 µM
- GI50 [38]: > 100 µM
- TGI [38]: > 100 µM
- GI50 [39]: 23.6 µM
- TGI [39]: 58 µM
- GI50 [40]: > 100 µM
- TGI [40]: > 100 µM
- GI50 [41]: 73.7 µM
- TGI [41]: > 100 µM
- GI50 [42]: > 100 µM
- TGI [42]: > 100 µM
- GI50 [43]: 67.4 µM
- TGI [43]: > 100 µM
- GI50 [44]: > 100 µM
- TGI [44]: > 100 µM
- GI50 [45]: > 100 µM
- TGI [45]: > 100 µM
- GI50 [46]: 32.2 µM
- TGI [46]: 89.5 µM
- GI50 [47]: > 100 µM
- TGI [47]: > 100 µM
- GI50 [48]: 32.6 µM
- TGI [48]: > 100 µM
- GI50 [49]: 25.1 µM
- TGI [49]: 78.7 µM
- GI50 [50]: > 100 µM
- TGI [50]: > 100 µM
- GI50 [51]: 42.1 µM
- TGI [51]: > 100 µM
- GI50 [52]: 36.2 µM
- TGI [52]: > 100 µM
- GI50 [53]: > 100 µM
- TGI [53]: > 100 µM
- GI50 [54]: 52.5 µM
- TGI [54]: > 100 µM
- GI50 [55]: > 100 µM
- TGI [55]: > 100 µM
